From patent US20240336627A1, “NOVEL COMPOUNDS FOR THE DIAGNOSIS OF TDP-43 PROTEINOPATHIES” (AC IMMUNE SA, priority 2021, published 2024)
pKi: −log10 of the molar value. Marks after values point to notes of the source that are not given here.

Target: T1, Human brain derived TDP-43 aggregates (Homo sapiens, UniProt Q13148)
T1 construct: A sample of brain tissue (frontal or temporal cortex) was homogenized; from tissue; host or cells: sarkosyl-insoluble fraction of human FTD brain (frontal or temporal cortex)
Assay: Micro-radiobinding competition assay on human FTD sarkosyl-insoluble brain extracts
Assay type: binding
Conditions: for pKi: 0.24 nM to 2 μM test compound; for Human brain derived TDP-43 aggregates Mean % competition at 250 nM: 250 nM test compound; for Human brain derived TDP-43 aggregates Mean % competition at 2 μM: 2 μM test compound
Protocol: Human brain extracts were prepared as described in Laferriere et al., 2019, Nature Neurosc. A sample of brain tissue (frontal or temporal cortex) was homogenized at 1:4 (w/v) ratio in the homogenization-solubilization (HS) buffer at 4° C. using tissue homogenizer (Precellys) with CKmix homogenization tubes. The following sequence was used for homogenization: 3 cycles of 30 seconds at 5000 rpm (with 15 seconds pause between each cycle). Homogenized samples were aliquoted and stored at −80° C. in 1.5 mL low protein binding tubes.
Brain homogenates were thawed on ice and resuspended in HS buffer to obtain a final concentration of 2% sarkosyl, 1 unit/μL Benzonase and 1 mM MgCl2. The samples were then incubated at 37° C. under constant shaking at 600 rpm on a thermomixer for 45 minutes (min). The supernatants were collected in a new tube (sarkosyl-soluble fraction, S1). The pellet was resuspended in 1000 μL of myelin floatation buffer and centrifuged at 20,000 g for 60 min at 4° C. The supernatant was carefully removed to remove all the floating lipids. This step was repeated if all the lipids could not be removed in a single step. The pellet was subsequently washed with Phosphate-Buffered Saline (PBS) and centrifuged for 30 min at 20,000 g at 4° C. The final pellet was resuspended in 200 μL PBS and stored at −80° C. (sarkosyl-insoluble fraction). The samples were analyzed by immunoblotting in denaturing conditions.
Human FTD sarkosyl-insoluble brain extracts were spotted onto microarray slides. The slides were incubated with [^3H]-Compound 52 or [^3H]-Compound 16 ligands at 75 nM or 40 nM, respectively, and the example compounds (non-radiolabelled) at 2 μM and 250 nM. In some cases, the non-radiolabelled example compounds were further assessed for a range of different concentrations, varying from 0.24 nM to 2 μM for determination of the inhibition constant (Ki). After incubation, slides were washed and scanned by a real-time autoradiography system (BeaQuant, ai4R). Quantification of the signal was performed by using the Beamage image analysis software (ai4R). Non-specific signal was determined with an excess of non-radiolabelled compound 52 or compound 16 (2 μM) and specific binding was calculated by subtracting the non-specific signal from the total signal. Competition was calculated as percent, where 0% was defined as the specific binding in the presence of vehicle and 100% as the values obtained in the presence of excess of the non-radiolabelled compound 52 or compound 16. Ki values were calculated in GraphPad Prism7 by applying a nonlinear regression curve fit using a one site, specific binding model. Measurements were performed with at least two technical replicates in the two-concentration competition experiment and with one technical replicate in the experiments including a range of concentrations. For compounds tested in more than one experiment, the mean of the replicates or Ki values in independent experiments is reported.

[1] = radioligand [3H]-Compound 52 (75 nM)
[2] = radioligand [3H]-Compound 16 (40 nM)

T1 sequence (Q13148 whole entry): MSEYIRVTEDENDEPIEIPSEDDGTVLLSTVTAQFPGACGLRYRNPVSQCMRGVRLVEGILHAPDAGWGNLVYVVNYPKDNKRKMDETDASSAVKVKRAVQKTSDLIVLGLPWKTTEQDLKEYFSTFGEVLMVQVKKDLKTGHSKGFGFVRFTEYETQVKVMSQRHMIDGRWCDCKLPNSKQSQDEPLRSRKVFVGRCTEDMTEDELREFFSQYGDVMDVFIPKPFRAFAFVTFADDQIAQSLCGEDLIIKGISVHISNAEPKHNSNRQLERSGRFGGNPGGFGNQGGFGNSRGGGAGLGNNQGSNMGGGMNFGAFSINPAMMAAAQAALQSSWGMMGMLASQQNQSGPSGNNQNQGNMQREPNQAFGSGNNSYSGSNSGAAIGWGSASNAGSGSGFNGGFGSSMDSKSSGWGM

SMILES | pKi [1] | Human brain derived TDP-43 aggregates Mean % competition at 250 nM [1] | Human brain derived TDP-43 aggregates Mean % competition at 2 μM [1] | Human brain derived TDP-43 aggregates Mean % competition at 250 nM [2] | Human brain derived TDP-43 aggregates Mean % competition at 2 μM [2] | pKi [2]
Cn1cc(N2CCc3nc(-c4ccc(N5CC[C@@H](F)C5)nc4)sc3C2=O)cn1 [Example 1, (R)-2-(6-(3-fluoropyrrolidin-1-yl)pyridin-3-yl)-5-(1-methyl-1H-pyrazol-4-yl)-6,7-dihydrothiazolo[5,4-c]pyridin-4(5H)-one] | 7.73 | – | – | – | – | –
Cn1cc(N2CCc3nc(-c4ccc(N5CCC[C@@H](F)C5)nc4)sc3C2=O)cn1 [Example 2, (R)-2-(6-(3-fluoropiperidin-1-yl)pyridin-3-yl)-5-(1-methyl-1H-pyrazol-4-yl)-6,7-dihydrothiazolo[5,4-c]pyridin-4(5H)-one] | 7.14 | 61.0ª % | 92.5ª % | – | – | –
Nc1cc(N2CCc3nc(-c4ccc(N5CCCC5)nc4)sc3C2=O)ccc1F [Example 3, 5-(3-amino-4-fluorophenyl)-2-(6-(pyrrolidin-1-yl)pyridin-3-yl)-6,7-dihydrothiazolo[5,4-c]pyridin-4(5H)-one] | 7.14 | 62.2ª % | 91.2ª % | – | – | –
Cn1cc(N2CCc3nc(-c4ccc(N5CC[C@H](F)C5)nc4)sc3C2=O)cn1 [Example 13] | – | 69.4ª % | 105.0ª % | – | – | –
Nc1cccc(N2CCc3nc(-c4ccc(N5CCCC5)nc4)sc3C2=O)c1F [Example 14] | 7.23 | 44.0ª % | 85.7ª % | – | – | –
Nc1ccc(N2CCc3nc(-c4ccc(N5CCCC5)nc4)sc3C2=O)cc1F [Example 15] | 6.86 | 64.6ª % | 96.4ª % | – | – | –
N#Cc1c(N)cccc1N1CCc2nc(-c3ccc(N4CCCC4)nc3)sc2C1=O [Example 16, 2-amino-6-(4-oxo-2-(6-(pyrrolidin-1-yl)pyridin-3-yl)-6,7-dihydrothiazolo[5,4-c]pyridin-5(4H)-yl)benzonitrile] | 7.09 | 46.0ª % | 83.2ª % | – | – | –
N#Cc1ccc(N2CCc3nc(-c4ccc(N5CCCC5)nc4)sc3C2=O)cc1N [Example 17] | – | 82.0ª % | 95.0ª % | – | – | –
N#Cc1cc(N2CCc3nc(-c4ccc(N5CCCC5)nc4)sc3C2=O)ccc1N [Example 18] | 7.16 | 76.2ª % | 102.0ª % | – | – | –
N#Cc1ccc(N2CCc3nc(-c4ccc(N5CC[C@@H](F)C5)nc4)sc3C2=O)cc1N [Example 19] | 7.27 | 76.9ª % | 92.1ª % | – | – | –
N#Cc1cc(N2CCc3nc(-c4ccc(N5CC[C@@H](F)C5)nc4)sc3C2=O)ccc1N [Example 20] | 6.79 | 66.7ª % | 88.3ª % | – | – | –
N#Cc1c(N)cccc1N1CCc2nc(-c3ccc(N4CC[C@H](F)C4)nc3)sc2C1=O [Example 21, (S)-2-amino-6-(2-(6-(3-fluoropyrrolidin-1-yl)pyridin-3-yl)-4-oxo-6,7-dihydrothiazolo[5,4-c]pyridin-5(4H)-yl)benzonitrile] | – | 22.7ª % | 40.1ª % | – | – | –
N#Cc1ccc(N2CCc3nc(-c4ccc(N5CC[C@H](F)C5)nc4)sc3C2=O)cc1N [Example 22] | – | 64.2ª % | 80.3ª % | – | – | –
N#Cc1cc(N2CCc3nc(-c4ccc(N5CC[C@H](F)C5)nc4)sc3C2=O)ccc1N [Example 23] | 7.00 | 35.5ª % | 76.1ª % | – | – | –
Nc1cccc(N2CCc3nc(-c4ccc(N5CC[C@@H](F)C5)nc4)sc3C2=O)c1F [Example 24] | 6.96 | 56.9ª % | 84.1ª % | – | – | –
Nc1cc(N2CCc3nc(-c4ccc(N5CC[C@@H](F)C5)nc4)sc3C2=O)ccc1F [Example 25] | – | 66.6ª % | 83.0ª % | – | – | –

SMILES | pKi [1] | Human brain derived TDP-43 aggregates Mean % competition at 250 nM [1] | Human brain derived TDP-43 aggregates Mean % competition at 2 μM [1] | Human brain derived TDP-43 aggregates Mean % competition at 250 nM [2] | Human brain derived TDP-43 aggregates Mean % competition at 2 μM [2] | pKi [2]
Nc1cc(N2CCc3nc(-c4ccc(N5CC[C@H](F)C5)nc4)sc3C2=O)ccc1F [Example 26, (S)-5-(3-amino-4-fluorophenyl)-2-(6-(3-fluoropyrrolidin-1-yl)pyridin-3-yl)-6,7-dihydrothiazolo[5,4-c]pyridin-4(5H)-one] | 8.00 | 40.8ª % | 70.8ª % | – | – | –
Cn1cc(N2CCc3nc(-c4ccc(N5CC[C@@H](F)C5)cc4)sc3C2=O)cn1 [Example 27] | 6.89 | 54.3ª % | 80.2ª % | – | – | –
Cn1cc(N2CCc3nc(-c4ccc(N5CC[C@H](F)C5)cc4)sc3C2=O)cn1 [Example 28] | 6.95 | 56.5ª % | 79.7ª % | – | – | –
N#Cc1cc(N2CCc3nc(-c4ccc(N5CCC[C@@H](F)C5)nc4)sc3C2=O)ccc1N [Example 29] | 7.56 | 42.6ª % | 73.9ª % | – | – | –
N#Cc1ccc(N2CCc3nc(-c4ccc(N5CCC[C@@H](F)C5)nc4)sc3C2=O)cc1N [Example 30] | 7.06 | 55.9ª % | 75.7ª % | – | – | –
N#Cc1ccc(N2CCc3nc(-c4ccc(N5CCC[C@H](F)C5)nc4)sc3C2=O)cc1N [Example 31] | 7.00 | 67.6ª % | 79.7ª % | – | – | –
N#Cc1cc(N2CCc3nc(-c4ccc(N5CCC[C@H](F)C5)nc4)sc3C2=O)ccc1N [Example 32] | – | 44.0ª % | 80.9ª % | – | – | –
Nc1cc(N2CCc3nc(-c4ccc(N5CCC[C@H](F)C5)nc4)sc3C2=O)ccc1F [Example 33] | 6.84 | 52.1ª % | 81.0ª % | – | – | –
Nc1cc(N2CCc3nc(-c4ccc(N5CCCC5)cn4)sc3C2=O)ccc1F [Example 34] | – | 72.8ª % | 67.9ª % | – | – | –
Nc1cc(N2CCc3nc(-c4cnc(N5CC[C@@H](F)C5)cn4)sc3C2=O)ccc1F [Example 35] | – | 53.0ª % | 74.6ª % | – | – | –
Nc1cc(N2CCc3nc(-c4cnc(N5CCC[C@H](F)C5)cn4)sc3C2=O)ccc1F [Example 36] | – | 51.0ª % | – | – | – | –
Nc1cc(N2CCc3nc(-c4cnc(N5CC[C@H](F)C5)cn4)sc3C2=O)ccc1F [Example 37] | 7.10 | 54.3ª % | 74.9ª % | – | – | –
Nc1cccc(N2CCc3nc(-c4cnc(N5CC[C@@H](F)C5)cn4)sc3C2=O)c1F [Example 38] | 6.94 | 46.3ª % | 74.0ª % | – | – | –
N#Cc1c(N)cccc1N1CCc2nc(-c3cnc(N4CCC(F)CC4)cn3)sc2C1=O [Example 39] | – | – | – | 64.5^c % | 77.4^c % | 6.83
N#Cc1c(N)cccc1N1CCc2nc(-c3cnc(N4CC[C@@H](F)C4)cn3)sc2C1=O [Example 40] | – | – | – | 54.6^c % | 77.9^c % | 6.98
